The structures appear in SMILES notation. Bounds are passed on as bounds.

The values below come from patent US9249102B2 (priority 2012, dated 2016).

The subject of this test is Haemonchus contortus. Kind of test: Method A: Haemonchus contortus L1 larvae, microtitre plate screen. To be noted: 96 h, read-out: motility inhibition.

A word on the inhibition: it is the change of the read-out against control, counted positive when it falls. As to `O=C(NCCO[C@H]1CC[C@H](Nc2ccc([N+](=O)[O-])c(C(F)(F)F)c2)CC1)C(=O)Nc1ccc2ccccc2n1` [Compound 238, N^1-(2-(-4-(4-nitro-3-(trifluoromethyl)phenylamino)cyclohexyloxy)ethyl)-N^2-(quinolin-2-yl)oxalamide], the inhibition at 5 µg/mL was at least 90%.
In the case of `O=C(NCCO[C@H]1CC[C@H](Nc2ccc([N+](=O)[O-])c(C(F)(F)F)c2)CC1)C(=O)Nc1ccc2cc(F)ccc2n1` [Compound 239, N^1-(6-fluoroquinolin-2-yl)-N^2-(2-(-4-(4-nitro-3-(trifluoromethyl)phenylamino)cyclohexyloxy)ethyl)oxalamide] it was at least 90%; in that of `O=C(NCCO[C@H]1CC[C@H](Nc2ccc([N+](=O)[O-])c(C(F)(F)F)c2)CC1)C(=O)Nc1ccc2cc(C(F)(F)F)ccc2n1` [Compound 240, N^1-(2-(-4-(4-nitro-3-(trifluoromethyl)phenylamino)cyclohexyloxy)ethyl)-N^2-(6-(trifluoromethyl)quinolin-2-yl)oxalamide], at least 90%.
As for `O=C(NCCO[C@H]1CC[C@H](Nc2ccc([N+](=O)[O-])c(C(F)(F)F)c2)CC1)C(=O)Nc1ccc2cc(Cl)ccc2n1` [Compound 241, N^1-(6-chloroquinolin-2-yl)-N^2-(2-(-4-(4-nitro-3-(trifluoromethyl)phenylamino)cyclohexyloxy)ethyl)oxalamide], the inhibition at 5 µg/mL is at least 90%.
As for `O=[N+]([O-])c1ccc(N[C@H]2CC[C@H](OCC(=S)N3CCN(c4ccc5cc(F)ccc5n4)CC3)CC2)cc1C(F)(F)F` [Compound 264, 1-[4-(6-fluoro-quinolin-2-yl)-piperazin-1-yl]-2-[4-(4-nitro-3-trifluoro-methyl-phenylamino)-cyclohexyloxy]-ethanethione], the inhibition at 5 µg/mL was at least 90%.
In the case of `O=C(CO[C@H]1CC[C@H](Nc2ccc([N+](=O)[O-])c(C(F)(F)F)c2)CC1)N1CCN(c2ccc3cc(Br)ccc3c2F)CC1` [Compound 267, 1-[4-(6-bromo-1-fluoro-naphthalen-2-yl)-piperazin-1-yl]-2-[4-(4-nitro-3-trifluoromethyl-phenylamino)-cyclohexyloxy]-ethanone], the inhibition at 5 µg/mL is at least 90%.
In the case of `O=C(CO[C@H]1CC[C@H](Nc2ccc([N+](=O)[O-])c(C(F)(F)F)c2)CC1)N1CCN(c2ccc3cc(Br)ccc3c2)CC1` [Compound 268, 1-[4-(6-bromo-naphthalen-2-yl)-piperazin-1-yl]-2-[4-(4-nitro-3-trifluoromethyl-phenylamino)-cyclohexyloxy]-ethanone] it was at least 90%; in that of `CN(c1ccc(C#N)c(C(F)(F)F)c1)[C@H]1CC[C@H](OCC(=O)N2CCN(CC3Cc4cc(F)ccc4O3)CC2)CC1` (some centres unmarked) [Compound 280, 4-[(4-{2-[4-(5-fluoro-2,3-dihydro-benzofuran-2-ylmethyl)-piperazin-1-yl]-2-oxo-ethoxy}-cyclohexyl)-methyl-amino]-2-trifluoromethyl-benzonitrile], at least 90%.
In the case of `N#Cc1ccc(N[C@H]2CC[C@H](OCC(=O)N3CCN(Cc4nc5cc(Cl)ccc5o4)CC3)CC2)cc1C(F)(F)F` [Compound 288, 2-[(4-[[4-cyano-3-(trifluoromethyl)phenyl]amino]cyclohexyl)-oxy]1-[4-(5-chlorobenzoxazol-2-ylmethyl)piperazin-1-yl]ethan-1-one] it was at least 90%; in that of `CN(c1ccc(C#N)c(C(F)(F)F)c1)[C@H]1CC[C@H](OCC(=O)N2CCN(c3ccc4cc(F)ccc4c3)CC2)CC1` [Compound 293, 4-[(4-{2-[4-(6-fluoro-naphthalen-2-yl)-piperazin-1-yl]-2-oxo-ethoxy}-cyclohexyl)-methyl-amino]-2-trifluoromethyl-benzonitrile], at least 90%; in that of `O=C(COC1CCC(Oc2ccc([N+](=O)[O-])c(C(F)(F)F)c2)CC1)N1CCN(Cc2nc3cc(C(F)(F)F)ccc3s2)CC1` (centres unmarked) [Compound 311, 2-[4-(4-nitro-3-trifluoromethyl-phenoxy)-cyclohexyloxy]-1-[4-(5-trifluoromethyl-benzothiazol-2-ylmethyl)-piperazin-1-yl]-ethanone], at least 90%.
In the case of `O=C(CO[C@H]1CC[C@H](Nc2ccc([N+](=O)[O-])c(C(F)(F)F)c2)CC1)N1CCN(Cc2oc3ccc(F)cc3c2Cl)CC1` [Compound 312, 1-[4-(3-chloro-5-fluoro-benzofuran-2-ylmethyl)-piperazin-1-yl]-2-[4-(4-nitro-3-trifluoromethyl-phenylamino)-cyclohexyloxy]-ethanone] it was at least 90%.
Take `N#Cc1ccc(N[C@H]2CC[C@H](OCC(=O)N3CCN(Cc4oc5ccc(F)cc5c4Cl)CC3)CC2)cc1C(F)(F)F` [Compound 313, 4-(4-{2-[4-(3-chloro-5-fluoro-benzofuran-2-ylmethyl)-piperazin-1-yl]-2-oxo-ethoxy}-cyclohexylamino)-2-trifluoromethyl-benzonitrile]: the inhibition at 5 µg/mL was at least 90%.
Next, `N#Cc1ccc(N[C@H]2CC[C@H](OCC(=O)N3CCN(Cc4oc5ccc(Cl)cc5c4Cl)CC3)CC2)cc1C(F)(F)F` [Compound 315, 4-(4-{2-[4-(3,5-dichloro-benzofuran-2-ylmethyl)-piperazin-1-yl]-2-oxo-ethoxy}-cyclohexylamino)-2-trifluoromethyl-benzonitrile]: at least 90%; `O=C(CO[C@H]1CC[C@H](Nc2ccc([N+](=O)[O-])c(C(F)(F)F)c2)CC1)N1CCN(Cc2oc3ccc(Cl)cc3c2Cl)CC1` [Compound 316, 1-[4-(3,5-dichloro-benzofuran-2-ylmethyl)-piperazin-1-yl]-2-[4-(4-nitro-3-trifluoromethyl-phenylamino)-cyclohexyloxy]-ethanone]: at least 90%.
Next, `O=C(CO[C@H]1CC[C@H](Nc2ccc([N+](=O)[O-])c(C(F)(F)F)c2)CC1)N1CCN(Cc2cc3c(Cl)cc(Cl)cc3o2)CC1` [Compound 318, 2-[(4-[[4-nitro-3-(trifluoromethyl)phenyl]amino]cyclohexyl)-oxy]1-[4-(4,6-dichlorobenzofuran-2-ylmethyl)piperazin-1-yl]ethan-1-one]: at least 90%; `O=C(CO[C@H]1CC[C@H](Nc2ccc([N+](=O)[O-])c(C(F)(F)F)c2)CC1)N1CCN(Cc2cc3cc(Cl)cc(Cl)c3o2)CC1` [Compound 319, 2-[(4-[[4-nitro-3-(trifluoromethyl)phenyl]amino]cyclohexyl)-oxy]1-[4-(5,7-dichlorobenzofuran-2-ylmethyl)piperazin-1-yl]ethan-1-one]: at least 90%; `O=C(CO[C@H]1CC[C@H](Nc2ccc([N+](=O)[O-])c(C(F)(F)F)c2)CC1)N1CCN(Cc2cc3cc(Cl)cc(Br)c3o2)CC1` [Compound 321, 2-[(4-[[4-nitro-3-(trifluoromethyl)phenyl]amino]cyclohexyl)-oxy]1-[4-(5-chloro-7-bromobenzofuran-2-ylmethyl)piperazin-1-yl]ethan-1-one]: at least 90%.
As to `O=C(CO[C@H]1CC[C@H](Nc2ccc([N+](=O)[O-])c(C(F)(F)F)c2)CC1)N1CCN(CCc2cc3cc(C(F)(F)F)ccc3o2)CC1` [Compound 324, 2-[4-[4-nitro-3-(trifluoromethyl)anilino]cyclohexoxy]-1-[4-[2-[5-(trifluoromethyl)benzofuran-2-yl]ethyl]piperazin-1-yl]ethanone], the inhibition at 5 µg/mL is at least 90%.
In the case of `CC(Cc1cc2cc(C(F)(F)F)ccc2o1)N1CCN(C(=O)CO[C@H]2CC[C@H](Nc3ccc([N+](=O)[O-])c(C(F)(F)F)c3)CC2)CC1` (some centres unmarked) [Compound 330, 1-[4-[1-methyl-2-[5-(trifluoromethyl)benzofuran-2-yl]ethyl]piperazin-1-yl]-2-[4-[4-nitro-3-(trifluoromethyl)anilino]cyclohexoxy]ethanone] it was at least 90%; in that of `O=C(CO[C@H]1CC[C@H](Nc2ccc([N+](=O)[O-])c(C(F)(F)F)c2)CC1)N1CCN(C(=O)c2nc3cc(C(F)(F)F)ccc3s2)CC1` [Compound 338, 2-[(4-[[4-nitro-3-(trifluoromethyl)phenyl]amino]cyclohexyl)-oxy]1-[4-[5-(trifluoromethyl)benzothiazole-2-carbonyl]piperazin-1-yl]ethan-1-one], at least 90%.
In the case of `C[C@@H]1CN(Cc2ccc3cc(F)ccc3c2)[C@@H](C)CN1C(=O)CO[C@H]1CC[C@H](Nc2ccc([N+](=O)[O-])c(C(F)(F)F)c2)CC1` [Compound 357, 1-[(2R,5S)-4-(6-fluoro-naphthalen-2-ylmethyl)-2,5-dimethyl-piperazin-1-yl]-2-[4-(4-nitro-3-trifluoromethyl-phenylamino)-cyclohexyloxy]-ethanone] it was at least 90%.
Consider `N#Cc1ccc(N[C@H]2CC[C@H](OCC(=O)N3CCN(c4nc5cc(C(F)(F)F)ccc5s4)CC3)CC2)cc1C(F)(F)F` [Compound 358, 4-(4-{2-oxo-2-[4-(5-trifluoromethyl-benzothiazol-2-yl)-piperazin-1-yl]-ethoxy}-cyclohexylamino)-2-trifluoromethyl-benzonitrile], for which the inhibition at 5 µg/mL was at least 90%.
In the case of `O=C(CO[C@H]1CC[C@H](Nc2ccc(S(=O)(=O)C(F)(F)F)cc2)CC1)N1CCN(c2nc3cc(C(F)(F)F)ccc3s2)CC1` [Compound 364, 2-[4-(4-trifluoromethanesulfonyl-phenylamino)-cyclohexyloxy]-1-[4-(5-trifluoromethyl-benzothiazol-2-yl)-piperazin-1-yl]-ethanone] it was at least 90%.
In the case of `C[C@@H]1CN(Cc2nc3cc(C(F)(F)F)ccc3s2)[C@@H](C)CN1C(=O)CO[C@H]1CC[C@H](Nc2ccc([N+](=O)[O-])c(C(F)(F)F)c2)CC1` [Compound 365, 1-[(2R,5S)-2,5-dimethyl-4-(5-trifluoromethyl-benzothiazol-2-ylmethyl)-piperazin-1-yl]-2-[4-(4-nitro-3-trifluoromethyl-phenylamino)-cyclohexyloxy]-ethanone] it was at least 90%.
In the case of `C[C@@H]1CN(Cc2nc3cc(F)ccc3s2)[C@@H](C)CN1C(=O)CO[C@H]1CC[C@H](Nc2ccc([N+](=O)[O-])c(C(F)(F)F)c2)CC1` [Compound 370, 1-[(2R,5S)-4-(5-fluoro-benzothiazol-2-ylmethyl)-2,5-dimethyl-piperazin-1-yl]-2-[4-(4-nitro-3-trifluoromethyl-phenylamino)-cyclohexyloxy]-ethanone] it was at least 90%.
